Structures can show the parent of a compound that is named as a salt.
Target: T1, human ornithine aminotransferase (hOAT) (Homo sapiens, UniProt P04181)
T1 sequence (P04181 26-439): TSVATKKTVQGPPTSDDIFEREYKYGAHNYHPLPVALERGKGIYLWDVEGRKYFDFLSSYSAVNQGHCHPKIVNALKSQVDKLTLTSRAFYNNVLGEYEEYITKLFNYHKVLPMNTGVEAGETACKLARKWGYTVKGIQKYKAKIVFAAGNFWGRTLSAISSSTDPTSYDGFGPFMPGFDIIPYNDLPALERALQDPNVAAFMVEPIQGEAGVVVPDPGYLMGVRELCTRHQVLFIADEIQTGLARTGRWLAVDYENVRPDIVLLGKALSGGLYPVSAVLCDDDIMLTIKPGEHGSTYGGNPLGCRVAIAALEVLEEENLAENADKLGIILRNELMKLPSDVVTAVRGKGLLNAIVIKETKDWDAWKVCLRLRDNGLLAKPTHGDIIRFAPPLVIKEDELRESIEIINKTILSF
Experiment: […] Å crystal structure of the inactivated enzyme
Format: biochemical
Details: read-out: Ki

- KI (inactivation): 54 µM
SMILES: N[C@H]1C[C@@H](C(=O)O)CC1=C(C(F)(F)F)C(F)(F)F [compound 1, (1S,3S)-3-amino-4-(perfluoropropan-2-ylidene)cyclopentane-1-carboxylic acid hydrochloride]
